The text below walks through data of ChEMBL document CHEMBL5137009, “On the Utility of Chemical Strategies to Improve Peptide Gut Stability” (J Med Chem, 2022).

A short description of data set [1]: Stability of the compound in simulated intestinal fluid at pH 6.8 assessed as half life measured up to 24 hrs by RP-HPLC-UV analysis. The data set is classed as ADME.
The nature of data set [2]: Stability of the compound in simulated gastric fluid at pH 1.2 assessed as half life measured up to 24 hrs by RP-HPLC-UV analysis. The data set is classed as ADME.

As to `CC[C@H](C)[C@@H]1NC(=O)[C@H](CCC(=O)O)NC(=O)[C@@H]2CCCN2C(=O)[C@H](Cc2cnc[nH]2)NC(=O)[C@H](CC(=O)O)NC(=O)[C@H](Cc2ccc(O)cc2)NC(=O)[C@H](CC(N)=O)NC(=O)[C@@H]2CSSC[C@H](NC(=O)CN)C(=O)N[C@@H](CSSC[C@@H](C(N)=O)NC1=O)C(=O)N[C@@H](CO)C(=O)N[C@@H](CC(=O)O)C(=O)N1CCC[C@H]1C(=O)N[C@@H](CCCNC(=N)N)C(=O)N2`, the half-life in data set [1] is 2.4 h; in data set [2], greater than 24 h.
In the same order, the values of `CC(C)C[C@@H]1NC(=O)[C@H](CCC(=O)O)NC(=O)[C@@H](NC(=O)[C@H](CCC(=O)O)NC(=O)[C@H](CC(=O)O)NC(=O)[C@H](N)CC(N)=O)CSSC[C@@H]2NC(=O)[C@H](C)NC(=O)[C@H](C(C)C)NC(=O)[C@H](CC(N)=O)NC(=O)[C@H](C(C)C)NC(=O)[C@H](CSSC[C@@H](C(=O)N[C@H](CC(C)C)C(=O)O)NC(=O)CNC(=O)[C@H]([C@@H](C)O)NC2=O)NC1=O` are greater than 24 h and greater than 24 h.
With `CC[C@H](C)[C@@H]1NC(=O)[C@H](CCC(=O)O)NC(=O)[C@@H]2CCCN2C(=O)[C@H](Cc2c[nH]cn2)NC(=O)[C@H](CC(=O)O)NC(=O)[C@H](Cc2ccc(O)cc2)NC(=O)[C@H](CC(N)=O)NC(=O)[C@@H]2CSSC[C@@H]3NC(=O)CNC(=O)CNC(=O)CNC(=O)[C@H](C)NC(=O)[C@H](C)NC(=O)CNC(=O)CNC(=O)[C@@H](CSSC[C@H](NC3=O)C(=O)N[C@@H](CO)C(=O)N[C@@H](CC(=O)O)C(=O)N3CCC[C@H]3C(=O)N[C@@H](CCCNC(=N)N)C(=O)N2)NC1=O`, the results for the half-life in data set [1] and in data set [2] were 1.5 h and greater than 24 h, respectively.
